Tests used:
Rat [1] = assay: concentration in brain after dosing; settings: 24 h; dosed: Perfluorodecanoic acid; 10 mg/kg; oral; Male; Harlan Sprague Dawley
Rat [2] = assay: concentration in plasma after dosing; settings: dosed: Perfluorodecanoic acid, 2 mg/kg, iv, Male, F344
Rat [3] = assay: concentration in kidney after dosing; settings: 3360 h; dosed: Perfluorodecanoic acid; 10 mg/kg; oral; Female; Harlan Sprague Dawley
Rat [4] = assay: concentration in plasma after dosing; settings: dosed: Perfluorodecanoic acid, 2 mg/kg, iv, Male, F344; remark: listed apart in the source
Rat [5] = assay: concentration in plasma after dosing; settings: dosed: dichloroacetic acid, 40 mg/kg, oral, Female, Harlan Sprague Dawley
Rat [6] = assay: concentration in plasma after dosing; settings: dosed: dichloroacetic acid, 40 mg/kg, oral, Female, Harlan Sprague Dawley; remark: listed apart in the source
Rat [7] = assay: concentration in plasma after dosing; settings: dosed: dichloroacetic acid, 100 mg/kg, oral, Male, F344
Rat [8] = assay: concentration in plasma after dosing; settings: 10 min; dosed: dichloroacetic acid; 10 mg/kg; iv; Male; F344
Rat [9] = assay: concentration in plasma after dosing; settings: 9 h; dosed: Primidone; 30 mg/kg; oral; Male; F344
Rat [10] = assay: concentration in plasma after dosing; settings: 6 h; dosed: Primidone; 30 mg/kg; oral; Female; F344
Rat [11] = assay: concentration in plasma after dosing; settings: 22 h; dosed: Primidone; 30 mg/kg; oral; Female; F344
Rat [12] = assay: concentration in plasma after dosing; settings: 2.5 min; dosed: Wyeth-14643; 2.0 mg/kg; iv; Male; Sprague-Dawley
Rat [13] = assay: concentration in plasma after dosing; settings: dosed: Wyeth-14643, 1.0 mg/kg, oral, Male, Sprague-Dawley
Rat [14] = assay: concentration in liver after dosing; settings: 3 h; dosed: Fluorotelomer alcohol 8+2; 24 mg/kg; oral; Male; Harlan Sprague Dawley
Rat [15] = assay: concentration in liver after dosing; settings: 0.5 h; dosed: Fluorotelomer alcohol 8+2; 80 mg/kg; oral; Female; Harlan Sprague Dawley
Rat [16] = assay: concentration in plasma after dosing; settings: dosed: Fluorotelomer alcohol 8+2, 40 mg/kg, iv, Male, F344
Rat [17] = assay: concentration in plasma after dosing; settings: dosed: Fluorotelomer alcohol 8+2, 12 mg/kg, oral, Male, Harlan Sprague Dawley
Rat [18] = assay: concentration in plasma after dosing; settings: dosed: Fluorotelomer alcohol 8+2, 12 mg/kg, iv, Male, F344
Rat [19] = assay: concentration in plasma after dosing; settings: dosed: Fluorotelomer alcohol 8+2, 12 mg/kg, oral, Male, Harlan Sprague Dawley; remark: listed apart in the source
Rat [20] = assay: concentration in kidney after dosing; settings: 3 h; dosed: Fluorotelomer alcohol 8+2; 80 mg/kg; oral; Female; Harlan Sprague Dawley
Rat [21] = assay: concentration in plasma after dosing; settings: dosed: Fluorotelomer alcohol 8+2, 40 mg/kg, iv, Female, Harlan Sprague-Dawley
Rat [22] = assay: concentration in plasma after dosing; settings: 5 min; dosed: Fluorotelomer alcohol 8+2; 12 mg/kg; iv; Male; F344
Rat [23] = assay: concentration in kidney after dosing; settings: 3 h; dosed: Fluorotelomer alcohol 8+2; 80 mg/kg; oral; Female; Harlan Sprague Dawley; remark: listed apart in the source
Rat [24] = assay: concentration in kidney after dosing; settings: 0.5 h; dosed: Fluorotelomer alcohol 8+2; 80 mg/kg; oral; Female; Harlan Sprague Dawley
Rat [25] = assay: concentration in heart after dosing; settings: 20 min; dosed: Thiodiglycolic Acid; 20 mg/kg; iv; Female; F344
Rat [26] = assay: concentration in heart after dosing; settings: 4 h; dosed: Thiodiglycolic Acid; 20 mg/kg; iv; Male; Harlan Sprague Dawley
Rat [27] = assay: concentration in plasma after dosing; settings: 3 h; dosed: Thiodiglycolic Acid; 20 mg/kg; iv; Female; Harlan Sprague Dawley
Rat [28] = assay: concentration in thymus after dosing; settings: 1 h; dosed: Thiodiglycolic Acid; 20 mg/kg; iv; Female; Harlan Sprague Dawley
Rat [29] = assay: concentration in thymus after dosing; settings: 6.667 h; dosed: Thiodiglycolic Acid; 20 mg/kg; iv; Female; Harlan Sprague Dawley
Rat [30] = assay: concentration in thymus after dosing; settings: 20 min; dosed: Thiodiglycolic Acid; 20 mg/kg; iv; Female; Harlan Sprague Dawley
Rat [31] = assay: concentration in heart after dosing; settings: 40 min; dosed: Bis 2-Chloroethoxy Methane; 20 mg/kg; iv; Female; F344
Rat [32] = assay: concentration in liver after dosing; settings: 1 h; dosed: Bis 2-Chloroethoxy Methane; 20 mg/kg; iv; Male; F344
Rat [33] = assay: concentration in plasma after dosing; settings: 4 h; dosed: Bis 2-Chloroethoxy Methane; 20 mg/kg; iv; Male; F344
Rat [34] = assay: concentration in plasma after dosing; settings: 4 h; dosed: Bis 2-Chloroethoxy Methane; 20 mg/kg; iv; Male; F344; remark: listed apart in the source
Rat [35] = assay: concentration in plasma after dosing; settings: 1 h; dosed: Bis 2-Chloroethoxy Methane; 20 mg/kg; iv; Male; F344
Rat [36] = assay: concentration in plasma after dosing; settings: 2 h; dosed: Bis 2-Chloroethoxy Methane; 40 mg/kg; iv; Male; Harlan Sprague Dawley
Rat [37] = assay: concentration in plasma after dosing; settings: 3 h; dosed: Di-n-butyl phthalate; 50 mg/kg; oral; Male; Sprague-Dawley
Rat [38] = assay: concentration in plasma after dosing; settings: 15 h; dosed: Di-n-butyl phthalate; 50 mg/kg; oral; Male; Sprague-Dawley

O=C(O)C(F)(F)C(F)(F)C(F)(F)C(F)(F)C(F)(F)C(F)(F)C(F)(F)C(F)(F)C(F)(F)F [Perfluorodecanoic acid]
concentration in brain (Rat [1]): 2840 ng/g
concentration in plasma (Rat [2]; 24 h): 5510 ng/mL
concentration in plasma (Rat [2]; 1848 h): 410 ng/mL
concentration in kidney (Rat [3]): 2580 ng/g
concentration in plasma (Rat [4]; 6 h): 6490 ng/mL
concentration in plasma (Rat [4]; 864 h): 2790 ng/mL

O=C(O)C(Cl)Cl [dichloroacetic acid]
concentration in plasma (Rat [5]; 20 min): 7440 ng/mL
concentration in plasma (Rat [5]; 2 h): 1060 ng/mL
concentration in plasma (Rat [6]; 5 min): 4330 ng/mL
concentration in plasma (Rat [6]; 1.25 h): 5690 ng/mL
concentration in plasma (Rat [7]; 0.25 h): 13300 ng/mL
concentration in plasma (Rat [7]; 6 h): 32800 ng/mL
concentration in plasma (Rat [8]): 8110 ng/mL

CCC1(c2ccccc2)C(=O)NC(=O)NC1=O [Phenobarbital]
concentration in plasma (Rat [9]): 2930 ng/mL
concentration in plasma (Rat [10]): 990 ng/mL
concentration in plasma (Rat [11]): 720 ng/mL

Cc1cccc(Nc2cc(Cl)nc(SCC(=O)O)n2)c1C
concentration in plasma (Rat [12]): 30500 ng/mL
concentration in plasma (Rat [13]; 2 h): 709 ng/mL
concentration in plasma (Rat [13]; 8 h): 189 ng/mL

OCCC(F)(F)C(F)(F)C(F)(F)C(F)(F)C(F)(F)C(F)(F)C(F)(F)C(F)(F)F [Fluorotelomer alcohol 8+2]
concentration in liver (Rat [14]): 3080 ng/g
concentration in liver (Rat [15]): 4040 ng/g
concentration in plasma (Rat [16]; 0.25 h): 12700 ng/mL
concentration in plasma (Rat [16]; 6 h): 153 ng/mL
concentration in plasma (Rat [17]; 1 h): 329 ng/mL
concentration in plasma (Rat [17]; 24 h): 0.982 ng/mL
concentration in plasma (Rat [18]; 1 h): 619 ng/mL
concentration in plasma (Rat [18]; 6 h): 38.5 ng/mL
concentration in plasma (Rat [19]; 0.5 h): 374 ng/mL
concentration in plasma (Rat [19]; 9 h): 12.8 ng/mL
concentration in kidney (Rat [20]): 4360 ng/g
concentration in plasma (Rat [21]; 1 h): 2530 ng/mL
concentration in plasma (Rat [21]; 24 h): 24.5 ng/mL
concentration in plasma (Rat [22]): 3800 ng/mL
concentration in kidney (Rat [23]): 5170 ng/g
concentration in kidney (Rat [24]): 4140 ng/g

O=C(O)CSCC(=O)O [Thiodiglycolic Acid]
concentration in heart (Rat [25]): 3600 ng/g
concentration in heart (Rat [26]): 527 ng/g
concentration in plasma (Rat [27]): 676 ng/mL
concentration in thymus (Rat [28]): 2580 ng/g
concentration in thymus (Rat [29]): 263 ng/g
concentration in thymus (Rat [30]): 5770 ng/g

ClCCOCOCCCl [Bis 2-Chloroethoxy Methane]
concentration in heart (Rat [31]): 3630 ng/g
concentration in liver (Rat [32]): 2070 ng/g
concentration in plasma (Rat [33]): 118 ng/mL
concentration in plasma (Rat [34]): 83.3 ng/mL
concentration in plasma (Rat [35]): 1320 ng/mL
concentration in plasma (Rat [36]): 840 ng/mL

CCCCOC(=O)c1ccccc1C(=O)O [Mono-n-butyl phthalate]
concentration in plasma (Rat [37]): 1180 ng/mL
concentration in plasma (Rat [38]): 530 ng/mL

Source: EPA's CvTdb concentration-time database
